Patent EP2271935B1, “METHOD AND KIT FOR THE EX VIVO EVALUATION OF THE RESPONSE OF A TUMOR TO CONDITIONS TO BE TESTED” (Universität Leipzig, priority 2008, dated 2009)

Test system: epithelial cell line KB (DSMZ ACC 136)
Assay: MTT assay of proliferation under varied riboflavin content and light exposure
Assay type: cell-based, human
From the text: To address this question, three media, a) the RPMI 1640 without riboflavin and phenol red that is used in the method according to the invention and was manufactured according to our specifications by Biochrom, as well as two different RPMI 1640 charges purchased from Invitrogen which were each containing 532 nmol/L riboflavin, b) a phenol red-free (Gibco 11835), and c) a conventional RPMI 1640 (Gibco 21875) with 13.284 µmol/L phenol red. All media were supplemented with 2 mmol/L L-alanyl-1-glutamine as stabilized glutamine source (Biochrom K0302 Lot 0755 S) and the same amount of 10% (v/v) of heat-inactivated fetal calf serum (FCS) that was purchased from Invitrogen (Lot 41Q7554K) with a yield of 198 nmol/L riboflavin. […] These medium concentrations define the riboflavin concentrations in controls (see below).
In addition to the influences exerted by the different types of media alone, the riboflavin-dependent impact on the outcome of the docetaxel treatment was investigated. For this purpose 100 µl/well of docetaxel dilutions containing threefold the concentration indicated were added into the wells of microwell plates. The following seven docetaxel concentrations were tested: 19.38, 38.75, 77.5, 155, 310, 620, and 1,240 pmol/L.
To examine photoactivation-dependent riboflavin-mediated effects disturbing the outcome of ex-vivo chemoresponse-evaluation by conventional cell culture medium, and in particular in the absence of flavin-protecting experimental conditions, varying amounts of riboflavin were added. A stock solution of 200 µM (-)-riboflavin (CAS 83-68-5, Sigma R9504, FW=376.37 g/mol, purity >99%, cell culture tested) in phosphate buffered saline was diluted to adjust in each case the highest final concentration in culture (this means: after completion of the assay by addition of the other two components to the final assay volume of 300 µL) to exactly 10 µmol/L. Serial log10-dilutions were made from this concentration in each corresponding medium. These gave final concentrations in cell culture of 10.000, 1.018, 0.12, and 0.03 µmol/L in the case of medium a) (the medium according to the method of the invention), and concentrations of 10.000, 1.449, 0.594, and 0.508 µmol/L using media b) and c).
In general, each combination of riboflavin and docetaxel were tested in duplicate, and controls without additional riboflavin in quadruplicate for each experimental setting in the same 96-well plate. The experimental conditions were as follows: For each of the used media, two different plates were prepared simultaneously and either handled completely under flavin-protecting conditions (illumination only by sodium discharge lamps with an emission wavelength of 589 nm [i]), or in the same bench (Thermo MSC 12) with the installed light inside their working chamber switched on. The dilution of docetaxel and those of riboflavin in the particular medium were prepared for all four plates of each medium type prior to the other working steps under flavin-protecting conditions. Thus the administrations of these dilutions took about 20 min either under flavin-protecting conditions or illuminated conditions. After completed preparation of the plates that thereafter contained 200 µL of both diluted compounds, the plates were incubated 2 h in the incubator to allow for adjustment of the appropriate pH.
In between the stock culture of KB was harvested by trypsination of a 3-days stock culture (exponential growth phase). Stock cultures of KB cells always were grown without any antibiotic or antimycotic in phenol red- and riboflavin-free RPMI 1640 supplemented with 10% (v/v) FCS and were adapted to this medium for more than five passages. They were always handled at room temperature or warmer and were never exposed to light other than the light of a sodium discharge lamp with an emission wavelength of 589 nm for at least five passages. […]

SMILES: Cc1cc2nc3c(=O)[nH]c(=O)nc-3n(C[C@H](O)[C@H](O)[C@H](O)CO)c2cc1C [riboflavin, (-)-riboflavin]
- toxicity of riboflavin to KB cells (10 µmol/L riboflavin; plate 03, medium a), bench lighting below 30 min): complete die off of the KB cells
- riboflavin concentrations leading to complete dying of all KB cells (exposed to daylight 30 min (plates 02, 04, 06, 08, 10, and 12)): above 594 nmol/L
